Data on 2 compounds can be found in patent EP0375164B1, “Antiviral compounds” (THE WELLCOME FOUNDATION LIMITED, priority 1988, dated 1990).

A short description of data set [1]: Determination of oral bioavailability by urinary recovery after oral administration. The format is in vivo. The conditions noted are these: Long Evans Rats, gavage, 50 mg/kg; percent of dose excreted in urine over 48 hour collection as the parent compound 1-(β-D-arabinofuranosyl)-5-prop-1-ynyluracil. On the procedure: Tests in rats were carried out on compounds of the invention to determine their bioavailability by measuring the urinary recovery after oral administration, as a percentage of the dose administered. High levels of the parent compound, 1-(β-D-arabinofuranosyl)-5-prop-1-ynyluracil, in the urine indicated good absorption from the gut.
Long Evans Rats were administered the compound of Example 1 or the parent compound by gavage at a dose of 50 mg/kg. The urine was collected for 24 and 48 hours post-dose, ultrafiltered, and analysed by reverse-phase high-pressure liquid chromatography. The oral bioavailability of the Example 1 compound and the parent compound was expressed as the percent of the dose excreted in the urine over the 48 hour period of collection, as 1-(β-D-arabinofuranosyl)-5-prop-1-ynyluracil, i.e. the parent compound.

The subject of another data set is Vero cells. The data set can be described thus: Cell toxicity in a cell growth inhibition assay (MTT uptake). The format is cell-based. Particulars: concentration for 50% inhibition of cell viability at 96 hours. The procedure: Cell toxicity is assessed in a cell growth inhibition assay. Subconfluent cultures of Vero cells grown on 96-well microtiter dishes are exposed to different dilutions of drug, and cell viability determined daily on replicate cultures using uptake of a tetrazolium dye (MTT). The concentration required for a 50% inhibition of cell vaibility at 96 hours is termed CCID₅₀.

Regarding “5-Prop-1-ynyl-1-(5-0-trimethylacetyl-β-D-arabinofuranosyl)uracil [Example 1]”, the “Urinary Recovery (% of dose)” value in data set [1] is 64.89 % of dose. Also, the “CCID₅₀(µM) at 96 hr” value in the data set with Vero cells is given as 477 µM.
For the compound `CC#Cc1cn([C@@H]2O[C@H](CO)[C@@H](O)[C@@H]2O)c(=O)[nH]c1=O` [Parent Compound, 1-(β-D-arabinofuranosyl)-5-prop-1-ynyluracil, reference compound], the “Urinary Recovery (% of dose)” value in data set [1] was 9.70 % of dose.
